From patent US6489331B1, “Remedies for diabetes” (Kyowa Hakko Kogyo Co., Ltd., priority 1998, dated 2002)
Where a name gives a salt, the structure may show the parent alone. Read-outs that look alike come from different tables or passages of the source.

Key:
dd male mice = assay: Acute toxicity test (minimum lethal dose); format: in vivo; settings: po, mortality after seven days
Protocol: A test compound was orally administered to dd male mice (body weight: 20±1 g, n=3). Mortality rate after seven days was measured to determine minimum lethal dose (MLD).

Wistar male rats [1] = assay: Hyperglycemia suppression action after glucose-loading; format: in vivo; settings: 30 mg/kg, po
Protocol: These rats were used for the experiment after starvation for 18 hours. A test compound was orally administered 1 hour before oral administration of glucose (2 g/kg). Jugular venous blood was collected before the administration of test compound, before the glucose-loading, 5, 10, 15, 30, 45 and 60 minutes after the glucose-loading, and plasma glucose concentration was measured (enzymatic method). The insulin level was indicated as amount of rat insulin (ng/mL).

MIN6 cell = assay: Insulin secretion enhancing action in cultured β-cell (MIN6); format: cell-based; settings: in the presence of 14.5 mM glucose; drug concentration 1.0 μM
Protocol: Culture of the MIN6 cells and insulin secretion test utilizing the MIN6 cells were performed basically according to the methods described in literature (Ishihara et al., Diabetologia, vol. 36, pp.1139-1145, 1993). The effect of a compound on the insulin secretion in the presence of 14.5 mM glucose was determined by measuring insulin amounts in cell culture supernatants collected as follows. MIN6 cells cultured on a 24-well plate were washed twice by using 1 ml of Buffer A (119 mM sodium chloride, 4.74 mM potassium chloride, 2.54 mM calcium chloride, 1.19 mM magnesium sulfate, 1.19 mM potassium dihydrogenphosphate, 10 mM 2-[4-(2-hydroxyethyl)-1-piperazinyl]ethanesulfonic acid, 0.1% bovine serum albumin, pH 7.3) containing 2 mM glucose, and then were incubated in 1 ml of Buffer A containing 2 mM glucose at 37° C. for 45 minutes. After the incubation, the culture supernatant was changed to Buffer A (0.9 ml) containing a test compound at various concentrations and 2 mM glucose, and the cells were further incubated at 37° C. for 15 minutes. The MIN6 cells were stimulated with glucose by the addition of Buffer A (0.1 ml) containing 127 mM glucose to the culture (final glucose concentration: 14.5 mM). After the stimulation, the cells were further incubated at 37° C. for 45 minutes, and then the culture supernatant was collected.
Separately, the effect of a compound on the insulin secretion in the presence of 5 mM glucose was determined by measuring insulin amounts in cell culture supernatants collected as follows. MIN6 cells cultured on a 24-well plate were washed twice by using 1 ml of Buffer A containing 5 mM glucose, and then the culture supernatant was changed to Buffer A (0.9 ml) containing a test compound at various concentrations and 5 mM glucose. Then, the cells were incubated at 37° C. for 45 minutes (final glucose concentration: 5 mM), and the culture supernatant was collected.
After the culture supernatant was diluted with a phosphate buffer containing 1% bovine serum albumin, 0.1% Tween 20, 0.12% disodium ethylenediaminetetraacetate and 0.1% sodium azide, antibody-reactive insulin secreted in the culture supernatant was quantified by enzyme immunoassay or radio immunoassay. […] The results are indicated as averages (avg) for 3 to 4 samples with standard error values (se).

Wistar male rats [2] = settings: iv; for Area of plasma insulin, test compound-administered group: after glucose-loading (10 mg/kg iv)
Protocol: Wistar male rats (body weight: about 250 g) starved for 18 hours were anesthetized by intraperitoneal administration of sodium pentobarbital (50 mg/kg), and fixed at the dorsal position. Cannulas were inserted into the right common carotid artery for blood collection and the left femoral vein for administration of drug and glucose, respectively. To these rats were intravenously administered 500 U/kg of heparin to prevent blood coagulation. After about 0.2 ml of blood was collected, a drug was intravenously administered. Two minutes after the administration of the drug, blood was collected, and then glucose (10 mg/kg) was immediately administered intravenously. Then, blood was collected every 20 seconds for 2 minutes. Insulin concentration in plasma obtained by centrifugation was measured by radioimmunoassay. From an insulin concentration which increased after the glucose-loading, its area was calculated and considered the amount of secreted insulin. The insulin level was indicated as the amount of rat insulin (ng/mL).

Row | SMILES | minimum lethal dose (MLD) (dd male mice) | Plasma glucose concentration (Wistar male rats [1]; 0 minute (before glucose-loading)) [mg/dL] | Plasma glucose concentration (Wistar male rats [1]; 5 minutes after glucose-loading) [mg/dL] | Plasma glucose concentration (Wistar male rats [1]; 10 minutes after glucose-loading) [mg/dL] | Plasma glucose concentration (Wistar male rats [1]; 15 minutes after glucose-loading) [mg/dL] | Plasma glucose concentration (Wistar male rats [1]; 30 minutes after glucose-loading) [mg/dL] | Plasma glucose concentration (Wistar male rats [1]; 45 minutes after glucose-loading) [mg/dL] | Plasma glucose concentration (Wistar male rats [1]; 60 minutes after glucose-loading) [mg/dL] | Plasma glucose concentration (Wistar male rats [1]; −1 minute) [mg/dL] | Amount of secreted insulin (ng/ml) avg (MIN6 cell) [ng/mL] | % Ratio based on control (area of plasma insulin) (Wistar male rats [2]; 3 mg/kg) [%] | Area of plasma insulin, test compound-administered group (Wistar male rats [2]; 3 mg/kg) [ng·s/mL] | % Ratio based on control (area of plasma insulin) (Wistar male rats [2]; 1 mg/kg) [%] | Area of plasma insulin, test compound-administered group (Wistar male rats [2]; 1 mg/kg) [ng·s/mL]
1 | CCCN1C(=O)N2C[C@@H](Cc3ccccc3)N=C2c2[nH]c(C3CCCC3)nc21 [Compound 16, (R)-8-benzyl-2-cyclopentyl-7,8-dihydro-4-propyl-1H-imidazo[2,1-i]purin-5(4H)-one hydrochloride] | not less than 300 mg/kg | 102 ± 4.6 | 147 ± 5.7 | 183 ± 9.1 | 186 ± 8.7 | 167 ± 3.3 | 165 ± 4.8 | 178 ± 4.7 | 114 ± 4.5 | 229.5 | 246 ± 19 | 17.28 ± 1.35 |  | 
2 | CCCN1C(=O)N2CC(Cc3ccc(Br)cc3)N=C2c2[nH]c(C3CCCC3)nc21 (stereo not drawn) [Compound 23, 8-(4-bromobenzyl)-2-cyclopentyl-7,8-dihydro-4-propyl-1H-imidazo[2,1-i]purin-5(4H)-one hydrochloride] |  |  |  |  |  |  |  |  |  | 249.9 |  |  | 228 ± 50 | 11.85 ± 2.58
3 | CCCN1C(=O)N2CC(CCc3ccccc3)N=C2c2[nH]c(C3CCCC3)nc21 (stereo not drawn) [Compound 31, 2-cyclopentyl-7,8-dihydro-8-phenethyl-4-propyl-1H-imidazo[2,1-i]purin-5(4H)-one hydrochloride] |  |  |  |  |  |  |  |  |  | 220.5 |  |  | 173 ± 16 | 9.00 ± 0.84
4 | CCCc1nc2c([nH]1)C1=N[C@H](Cc3ccccc3)CN1C(=O)N2CCC [Compound 35, (R)-8-benzyl-7,8-dihydro-2,4-dipropyl-1H-imidazo[2,1-i]purin-5(4H)-one hydrochloride] |  |  |  |  |  |  |  |  |  | 232.4 |  |  | 178 ± 23 | 15.69 ± 2.04
